By Ki is commonly meant the dissociation constant of the complex between target and ligand, obtained from inhibition or displacement.

We go through 3 compounds from paper PMC7309601 (Frontiers in Neuroscience, 2020).

Entries after “also recorded” stand apart in the source; their conditions may differ. Some results are limits rather than exact numbers.

Data set [1] relates to Aβ25–35 peptide-injected mice. Put plainly: Novel object recognition (NOR) task in Aβ25–35-injected mice. The format is in vivo. How it is done:
(§1) Both novel object recognition (NOR) and novel object location (NOL) tests were carried out in an open-field arena during three phases ([Leger et al., 2013]; [Vogel-Ciernia and Wood, 2014]; [Lueptow, 2017]). (i) For the habituation phase on the first day, mice were allowed to freely explore the empty apparatus. (ii) On the second day, two identical objects were placed at two opposite edges of the arena. Time spent by the mouse exploring the two objects was recorded. (iii) Twenty-four hours later, one of the two familiar objects was replaced by a novel one (NOR) or displaced (NOL). Mice were allowed to explore the whole arena during 10 min for each of the three phases. The preference index was calculated as the ratio of the duration of contacts with the novel/displaced object over the total duration of contacts with the two objects. Locomotion was recorded using EthoVision software (Noldus, Paris, France).

Data set [2] deals with Aβ25–35 peptide-injected mice. Put plainly: Morris water maze in Aβ25–35-injected mice.
Text: Control groups received the vehicles only under the very same conditions (volume, time, route of administration) as tested drugs.
Both peptides Aβ25–35 and Sc.Aβ (scramble Aβ25–35) were purchased from PolyPeptides (Strasbourg, France).
Mice were placed in a circular pool with external cues in the room. […] Training consisted of three swims with 20-min intertrial time each day for 5 days, performed between days 11 and 15 after Aβ25–35 peptide or Sc.Aβ peptide i.c.v. injection. Random starting positions were selected each day, and each animal was allowed a 90-s swim to find the platform. Probe test was performed 24 h after the last swim (day 16 after peptide injection). The platform was removed, and each animal was allowed a free 60-s swim. The time spent in each quadrant was determined. Swimming was recorded using EthoVision software (Noldus).
Data set [3] deals with scopolamine-treated mice. Put plainly: Novel object recognition (NOR) task after scopolamine challenge. The note with it: scopolamine 0.5 mg/kg s.c. The format is in vivo. How it is done:
as §1

The test system of data set [4] is scopolamine-treated mice injected with sh-GFP, sh-Cx30 or sh-Cx43. Put plainly: Novel object location (NOL) task in lentiviral vector-injected, scopolamine-treated mice. Format: in vivo. The note with it: scopolamine 0.5 mg/kg s.c.; all LV-injected mice.
The subject of data set [5] is scopolamine-treated mice. Put plainly: Y-maze spontaneous alternation task after scopolamine challenge. The note with it: scopolamine 0.5 mg/kg s.c. 20 min before task.
Experimental: Mefloquine (Sigma-Aldrich, L’Isle d’Abeau Chesnes, France) and DPZ (Sigma-Aldrich) were dissolved in 2% dimethyl sulfoxide (DMSO) and administered acutely either intraperitoneally (i.p.) (5 mL/kg) or by oral gavage (p.o.) (10 mL/kg). Scopolamine (Sigma-Aldrich) was administered subcutaneously (s.c.) (5 mL/kg) in saline solution (0.9% NaCl).
Mice were placed at the end of one arm of a Y-maze and allowed to move freely through the maze during an 8-min session. Spontaneous alternation was defined as entries into all three arms on consecutive occasions. […] The number of total arm entries during the 8-min session was used to quantify locomotor activity.
Data set [6] relates to ACh outflow in the hippocampus. Put plainly: Hippocampal microdialysis and quantification of ACh. The note with it: MEF 1 mg/kg i.p. alone. Format: in vivo, mice. How it is done: Mice were anesthetized with isoflurane, placed in a stereotaxic frame and bilaterally implanted with probes in both left and right hippocampi.
Concentrations of ACh in the microdialysis samples were analyzed by the Pronexus Analytical AB company (Stockholm, Sweden) using UHPLC tandem mass spectrometry (MS/MS). Briefly, the UHPLC-MS/MS system included a PAL autosampler (CTC Analytics, Zwingen, Switzerland), an Advance UHPLC pump, and an EVOQ Elite triple quadrupole mass spectrometer (Bruker Daltonics, Fremont, CA, United States) equipped with electrospray ionization source operating in a positive mode at +4,500 V. The source parameters were as follows: probe gas flow: 50, nebulizer gas flow: 60, probe temperature: +300°C, cone gas flow: 30, cone temperature: +200°C, CID gas: Ar 1.5 mTorr. A Titan PFP column (100 × 2.1 mm, 1.9 μm, 120 Å pore size) purchased from Sigma-Aldrich (Sweden) was used for UHPLC. Deuterated ACh (acetylcholine-1,1,2,2-d4 bromide; ACh-d4), used as internal standard, was purchased from C/D/N Isotopes (QMX Laboratories, Dunmow CM6 2PY, United Kingdom). Typically, 10 μL of aCSF or hippocampal microdialysate was mixed with 20 μL of ACh-d4 internal standard (50 nM, in aCSF), and 5 μL of the mixture was injected into the column. The mobile phase A was 0.1% (vol/vol) formic acid in water; the mobile phase B was acetonitrile with 0.1% formic acid. The linear elution gradient was as follows: 0–0.5 min: 5% B; 3.5 min: 55% B; 3.6 to 4.0 min: 70% B; 4.1 min, 5% B. The flow rate was 400 μL/min, and the total run-to-run time was 4.8 min. The calibration curve was linear in the range of 0.1 to 409.6 nM ACh (R^2 = 0.999); the estimated limit of detection was 0.05 nM, and the lower limit of quantification was 0.15 nM.
. 1 mg/kg, i.p.), or vehicle (NaCl 0.9%). Values are expressed as means ± SEM, n = 4–7 per group. Two-way ANOVA followed by Fisher least significant difference: *P < 0.05, **P < 0.01 vs Vehicle; […]. Acetylcholinesterase activity is expressed as percent of that determined in the absence of drugs. […]

For data set [7], the target named is T1, mouse hippocampus AChE (Mus musculus, UniProt P21836).
T1 construct: from tissue; host or cells: mouse hippocampus homogenate, cleared supernatant
T1 sequence (P21836 32-614): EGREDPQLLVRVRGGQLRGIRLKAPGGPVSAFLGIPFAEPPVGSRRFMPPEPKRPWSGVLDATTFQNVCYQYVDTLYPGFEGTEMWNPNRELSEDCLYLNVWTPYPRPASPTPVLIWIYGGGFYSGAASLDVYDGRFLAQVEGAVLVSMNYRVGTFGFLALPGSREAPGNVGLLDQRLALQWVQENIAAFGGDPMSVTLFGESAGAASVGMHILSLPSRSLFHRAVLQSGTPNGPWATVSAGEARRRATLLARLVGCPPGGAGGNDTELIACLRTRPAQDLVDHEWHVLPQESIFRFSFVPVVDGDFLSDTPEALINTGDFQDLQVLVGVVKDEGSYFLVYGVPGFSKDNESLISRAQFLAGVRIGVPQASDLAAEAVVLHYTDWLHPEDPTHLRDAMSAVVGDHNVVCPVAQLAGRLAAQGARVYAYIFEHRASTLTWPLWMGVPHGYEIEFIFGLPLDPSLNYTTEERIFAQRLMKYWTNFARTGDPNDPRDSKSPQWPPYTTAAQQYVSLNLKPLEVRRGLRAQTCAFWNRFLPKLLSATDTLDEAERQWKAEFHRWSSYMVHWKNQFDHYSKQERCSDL
The format is biochemical. Here is the method:
Acetylcholinesterase activity was quantified using a cholinesterase activity assay kit according to manufacturer’s recommendations (MAK119; Sigma, St. Louis, MO, United States). Briefly, mouse hippocampus was homogenized (10 μL/mg) in 0.1 M Na/K phosphate buffer (PB) (pH 7.5) at 4°C followed by centrifugation at 30,000 × g for 5 min. […] Absorbance at 415 nm was quantified using VICTOR plate reader (Perkin–Elmer Inc., Waltham, Massachusetts, United States) at 2-min intervals from time 0 (tissue sample addition) up to 10 min. Acetylcholinesterase activity was expressed as units/L. One unit of AChE is the amount of enzyme that catalyzes the production of 1.0 μmol of thiocholine per minute at room temperature at pH 7.5.
Acetylcholinesterase activity is expressed as percent of that determined in the absence of drugs.

Data set [8] is described as follows: in vivo. The note with it: rat. Here is the method:
Drugs were administered p.o., once per day for 14 days.
Blood was collected on the 14th treatment day, just prior to drug administration (T0) and then 30 min, 1, 2, 4, 8, and 24 h later. Blood was collected by retro-orbital puncture except for the last collection, which was made by intracardiac puncture. After coagulation, blood samples were centrifuged at 3,000 × g for 15 min, and serum was collected and stored at −80°C. Rats were sacrificed by decapitation immediately after the last blood collection, and their brains including brainstem and cerebellum were removed as one piece, placed on tinfoil precooled on dry ice and stored at −80°C until drug quantifications.
One volume of brain or serum samples was added to three volumes of human serum EDTA K3, and the mixture was homogenized under magnetic stirring for 15 min for analysis using a Sciex API4000 Qtrap mass spectrometer coupled to a Shimadzu HPLC system (Shimadzu Corporation, Marne-la-Vallée, France).
(A,C) Blood samples were collected before treatment (T0) and then at 0.5, 1, 2, 4, 8, and 24 h after the last administration on day 14. (B,D) Brain samples were collected on day 15, 24 h after the last drug administration. […] No statistical analysis applicable (C,D). Bars in black indicate combination treatments.

Data set [9] deals with T2, sigma-1 receptor (Homo sapiens, UniProt Q99720).
T2 construct: Eurofins CEREP
Put plainly: Eurofins CEREP sigma-1 receptor test. Format: binding. The note with it: MEF at a concentration as high as 1 μM; data not shown.

For data set [10], the target named is 5-HT1A. On the set-up: method as in Thompson et al., 2007; Janowsky et al., 2014. The note with it: ref Thompson et al., 2007; Janowsky et al., 2014; cited from earlier work.
The target in data set [11] is 5-HT2C. On the set-up: method as in Thompson et al., 2007; Janowsky et al., 2014. The note with it: ref Thompson et al., 2007; Janowsky et al., 2014; cited from earlier work.
In data set [12] the target is 5-HT3 receptors. On the set-up: method as in Thompson et al., 2007; Janowsky et al., 2014. The note with it: ref Thompson et al., 2007; Janowsky et al., 2014; cited from earlier work.
Data set [13] deals with noradrenaline transporters. Details: method as in Janowsky et al., 2014. The note with it: ref Janowsky et al., 2014; cited from earlier work.
For data set [14], the system named is Cx-mediated astroglial cellular coupling. Details: method as in Jeanson et al., 2016. The note with it: same concentration range as reached under the treatment conditions; ref Jeanson et al., 2016; cited from earlier work.
For data set [15] the following is noted: rat, in vivo; cited from earlier work.

T2 sequence (Q99720 whole entry, species assumed): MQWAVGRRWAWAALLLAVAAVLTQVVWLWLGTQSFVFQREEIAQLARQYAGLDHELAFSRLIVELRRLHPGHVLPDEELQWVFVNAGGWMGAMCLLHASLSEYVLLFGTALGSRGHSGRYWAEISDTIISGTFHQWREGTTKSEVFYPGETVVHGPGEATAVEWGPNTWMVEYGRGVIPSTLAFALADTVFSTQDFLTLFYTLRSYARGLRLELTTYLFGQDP

With “Aβ: Aβ25–35 peptide injected i.c.v. to induce Alzheimer’s disease–like memory deficits (GSNKGAIIGLM; Amyloid-beta protein 42; UniProt P05067 696-706, looked up, fragment)”, the “NOR test phase: effect of Aβ administration on exploration of the novel object” value in data set [1] (9 nmol Aβ25–35 i.c.v.) is given as “abolished the increase in exploration time of the novel object”. Moreover, the “Morris water maze learning: effect of Aβ i.c.v. injection vs Sc.Aβ” value in data set [2] (9 nmol Aβ25–35 i.c.v., learning days 3–5) is reported as “induced a significant memory deficit”.
As for `CN1[C@@H]2C[C@@H](OC(=O)[C@H](CO)c3ccccc3)C[C@H]1[C@@H]1O[C@@H]12` [scopolamine, Scopolamine], the “NOR test session: effect of scopolamine on exploration of the novel object” value in [3] was “abolished the increase in exploration time of the novel object”. Also, the “NOL task: preference index for the displaced object” value in data set [4] was around 50%. Further, the “Spontaneous alternation (Y-maze): effect of scopolamine vs vehicle-treated mice” value in data set [5] is on record as “significantly impaired spontaneous alternation”.
As to `OC(c1cc(C(F)(F)F)nc2c(C(F)(F)F)cccc12)C1CCCCN1` (stereo not shown) [MEF, Mefloquine], the “NOR test session: effect on scopolamine-induced loss of novel object preference” value in data set [3] (MEF 1 mg/kg i.p.) is “Neither MEF1 i.p., nor DPZ0.25 i.p., prevented the scopolamine effect”. In data set [1] (MEF 1 mg/kg p.o. daily from day 1, Aβ25–35 i.c.v.), the “NOR test phase: effect on Aβ-induced impairment (preference index)” value is reported as “did not reverse the Aβ-induced impairment”. Further, the “Hippocampal ACh outflow” value in data set [6] is given as “did not significantly modify ACh outflow”. Besides, the “Effect of MEF on the potency of DPZ to inhibit AChE activity” value in [7] (MEF 0.5–4 μM added to DPZ, brain extracts) is recorded as “did not modify the potency of DPZ to inhibit AChE activity; also recorded: failed to affect DPZ-induced inhibition of AChE activity”. In [7] (even at 10 times the concentration reached in the brain), the “Effect of MEF on AChE activity” value is on record as “devoid of any effect on AChE activity”. Further, the concentration at 24 h in data set [8] was around 500 nM. Also, the “Interference with sigma-1 receptor” value in data set [9] was “does not interfere with sigma-1 receptor”. For the same compound, the Ki in data set [10], in data set [11], in data set [12] and in data set [13] was above 1000 nM throughout. Further, the “Cx-mediated astroglial cellular coupling” value in [14] was “efficiently reduces Cx-mediated astroglial cellular coupling”. In addition, the “Crossing of the blood–brain barrier” value in data set [15] is on record as “able to cross the blood–brain barrier”. Moreover, in [2] (MEF 1 mg/kg p.o. daily), the “Morris water maze learning (swim latency): effect on Aβ-induced memory deficit” value was “showed no effect”.
